Earlier results as cited in paper PMC8146789, “20-Hydroxyecdysone, from Plant Extracts to Clinical Use: Therapeutic Potential for the Treatment of Neuromuscular, Cardio-Metabolic and Respiratory Diseases” (Biomedicines, 2021).
Read-outs that look alike come from different tables or passages of the source.

Tests used:
[1] = test system: myostatin gene expression in C2C12 cells; settings: cited from earlier work
[2] = design: method as in PMID 5719028, PMID 30428419; settings: ref [154],[155]; cited from earlier work
[3] = design: method as in PMID 3355591, PMID 2906596; settings: mice, i.p., ref [123],[125], cited from earlier work
[4] = humans, ref [132], cited from earlier work
[5] = sheep, ingested; ref [132]; cited from earlier work
C2C12 myotubes = test system: C2C12 myotubes; design: method as in PMID 24974955; settings: E2 1 nM; ref [54]; cited from earlier work
ERα = test system: ERα; design: method as in PMID 24974955; settings: ref [54]; cited from earlier work
Erβ = test system: Erβ; design: method as in PMID 24974955; settings: ref [54]; cited from earlier work
rats [6] = test system: rats; design: method as in ref [121] = [121]; 121. Ogawa S. Nishimoto N. Matsuda H. Pharmacology of ecdysones un vertebrates Invertebrate Endocrinology and Hormonal Heterophylly Burdette W.J. Springer Berlin, Germany 1974 341 344; settings: ref [121]; cited from earlier work
mice = settings: ref Ogawa et al. [121], cited from earlier work
rats [7] = settings: long-term feeding 0.2–2 g/kg/day, ref [121]; cited from earlier work
[8] = rat, in vivo, po; cited from earlier work

In the case of D-Ala^7-Ang(1-7), the “effect on the inhibition of myostatin gene expression by 20E” value ([1]; C2C12 cells, ref [113]) is listed as “effective at preventing the inhibition brought about by 20E” and the “effect on the inhibition of myostatin gene expression by Ang(1-7)” value ([1]; C2C12 cells, ref [113]) is listed as “abolished”.

In the case of D-Pro^7-Ang(1-7), the “effect on the inhibition of myostatin gene expression by 20E” value ([1]; C2C12 cells, ref [113]) is given as “effective at preventing the inhibition brought about by 20E” and the “effect on the inhibition of myostatin gene expression by Ang(1-7)” value ([1]; C2C12 cells, ref [113]) is given as “abolished”.

For “Angiotensin(1-7): natural ligand for the GPCR Mas1 (DRVYIHP; Angiotensin 1-7; UniProt P01019 25-31, looked up)”, the myostatin gene expression ([1]; C2C12 cells, ref [113]) is given as “partially inhibits myostatin gene expression”.

In the case of `C[C@]12C[C@H](O)[C@H](O)C[C@H]1C(=O)C=C1[C@@H]2CC[C@]2(C)C(=O)CC[C@@]12O` [rubrosterone], the anabolic activity [2] is given as “seem to retain some anabolic activity”.

For IGF-1: insulin-like growth factor-1, the myostatin gene expression ([1]; C2C12 myotubes, 6 h treatment, ref [103]) is given as “markedly reduces myostatin gene expression”.

For `C[C@H]([C@H](O)CCC(C)(C)O)[C@H]1CC[C@@]2(O)C3=CC(=O)[C@@H]4C[C@@H](O)[C@@H](O)C[C@]4(C)[C@H]3CC[C@]12C` [E, ecdysone], the “time to full excretion of radioactivity” value ([3]; undiluted radiolabelled ecdysone) is listed as at most 24 h, the “time until essentially all radioactivity is located in the intestine” value [3] is listed as 45 to 60 min and the “time of plasma titre maximum” value ([4]; ingested) is listed as “ca. 30 min”. The “effective half-time of elimination from the blood” value [4] was 4 h, the “effective half-time of elimination from the urine” value [4] was 3.1 h and the “time of plasma titre maximum” value [5] was “ca. 30 min”.

In the case of `C[C@]12CC[C@@H]3c4ccc(O)cc4CC[C@H]3[C@@H]1CC[C@H]2O` [17αE2, 17-epi-estradiol], the myostatin gene expression ([1]; C2C12 cells, ref [113]) is given as “inhibit myostatin gene expression in C2C12 cells”.

In the case of `C[C@]12CC[C@@H]3c4ccc(O)cc4CC[C@H]3[C@@H]1CC[C@@H]2O` [E2, Estradiol, reference compound], the myotube diameter (C2C12 myotubes) is given as “enhanced myotube diameter”, the “activation of ERE reporter gene” value (ERα) is given as “could be activated dose dependently” and the “activation of ERE reporter gene” value (Erβ) is given as “could be activated dose dependently”. The myostatin gene expression ([1]; C2C12 cells, ref [113]) was “inhibit myostatin gene expression in a dose-dependent manner”.

In the case of `C[C@]12CC[C@@H]3c4ccc(O)cc4C(=NOCC(=O)O)C[C@H]3[C@@H]1CC[C@@H]2O` [E2-CMO, estradiol 6-carboxymethyloxime], the myostatin gene expression ([1]; C2C12 cells, ref [113]) is given as “inhibit myostatin gene expression in C2C12 cells like E2”.

For `CC(CO)CC[C@@H](O)[C@](C)(O)[C@H]1CC[C@@]2(O)C3=CC(=O)[C@@H]4C[C@@H](O)[C@@H](O)C[C@]4(C)[C@H]3CC[C@]12C` (stereo partly shown) [inokosterone], the “sex hormonal activity, anti-inflammatory or anabolic effects” value (rats [6]) is listed as “did not have”, the LD50 (mice; i.p.-injected) is listed as 7800 mg/kg and the LD50 (mice; ingested) is listed as over 9000 mg/kg. For the same compound, the subacute toxicity (rats [7]) was “no subacute toxicity was observed”.

In the case of `CC(=O)[C@H]1CC[C@@]2(O)C3=CC(=O)[C@@H]4C[C@@H](O)[C@@H](O)C[C@]4(C)C3CC[C@]12C` (stereo partly shown) [Post, poststerone], the bioavailability [8] is listed as “ca. 19%” and the anabolic activity [2] is listed as “seem to retain some anabolic activity”.
